Measured values from US20220023306A1, “USE OF A PPAR-DELTA AGONIST IN THE TREATMENT OF FATTY ACID OXIDATION DISORDERS (FAOD)” (Reneo Pharmaceuticals, Inc., priority 2019, published 2022).

How the values were obtained:
Format in all cases: cell-based
hPPARα = biological target: T1, hPPARα (Homo sapiens, UniProt Q07869); test: PPAR transient transactivation assay, hPPARα
T1 construct: expressed in transfected cells; host or cells: HEK293
T1 sequence (Q07869 239-466 limits assumed): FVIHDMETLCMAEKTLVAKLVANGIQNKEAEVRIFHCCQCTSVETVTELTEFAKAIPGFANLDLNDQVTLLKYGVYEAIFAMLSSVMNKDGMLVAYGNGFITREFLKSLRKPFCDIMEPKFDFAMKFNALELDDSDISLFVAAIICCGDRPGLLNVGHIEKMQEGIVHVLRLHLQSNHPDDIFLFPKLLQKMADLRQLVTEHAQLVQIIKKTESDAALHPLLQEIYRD
Protocol: (§1) “Activation” herein is defined as the abovementioned downstream response, which in the case of PPAR's is gene transcription. Gene transcription, in some cases, is measured indirectly as downstream production of proteins reflective of the activation of the particular PPAR subtype under study. Alternatively, an artificial reporter construct, in some cases, is employed to study the activation of the individual PPAR's expressed in cells. The ligand binding domain of the particular receptor to be studied, in some embodiments, is fused to the DNA binding domain of a transcription factor, which produces convenient laboratory readouts, such as the yeast GAL4 transcription factor DNA binding domain. The fusion protein, in some cases, is transfected into a laboratory cell line along with a Gal4 enhancer, which effects the expression of the luciferase protein. When such a system is transfected into a laboratory cell line, binding of a receptor agonist to the fusion protein will result in light emission.
(§2) The PPAR transient transactivation assay, in some cases, is based on transient transfection into human HEK293 cells of two plasmids encoding a chimeric test protein and a reporter protein respectively. […] The amount of luciferase protein is measured by light emission after addition of the appropriate substrate. […]

hPPARγ = biological target: T2, hPPARγ (Homo sapiens, UniProt P37231); test: PPAR transient transactivation assay, hPPARγ
T2 construct: expressed in transfected cells; host or cells: HEK293
T2 sequence (P37231 238-503 limits assumed): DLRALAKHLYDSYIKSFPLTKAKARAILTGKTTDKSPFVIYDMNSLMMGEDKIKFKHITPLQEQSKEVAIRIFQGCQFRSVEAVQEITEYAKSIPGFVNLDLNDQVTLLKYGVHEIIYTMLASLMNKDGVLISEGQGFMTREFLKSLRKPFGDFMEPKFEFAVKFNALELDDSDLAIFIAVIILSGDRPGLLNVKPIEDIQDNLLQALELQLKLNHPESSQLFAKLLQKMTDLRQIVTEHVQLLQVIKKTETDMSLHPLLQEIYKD
Protocol: as §1, §2

LXRβ = biological target: T3, LXRβ (Homo sapiens, UniProt P55055); test: activity on nuclear receptor LXRβ
T3 sequence (P55055 1-460): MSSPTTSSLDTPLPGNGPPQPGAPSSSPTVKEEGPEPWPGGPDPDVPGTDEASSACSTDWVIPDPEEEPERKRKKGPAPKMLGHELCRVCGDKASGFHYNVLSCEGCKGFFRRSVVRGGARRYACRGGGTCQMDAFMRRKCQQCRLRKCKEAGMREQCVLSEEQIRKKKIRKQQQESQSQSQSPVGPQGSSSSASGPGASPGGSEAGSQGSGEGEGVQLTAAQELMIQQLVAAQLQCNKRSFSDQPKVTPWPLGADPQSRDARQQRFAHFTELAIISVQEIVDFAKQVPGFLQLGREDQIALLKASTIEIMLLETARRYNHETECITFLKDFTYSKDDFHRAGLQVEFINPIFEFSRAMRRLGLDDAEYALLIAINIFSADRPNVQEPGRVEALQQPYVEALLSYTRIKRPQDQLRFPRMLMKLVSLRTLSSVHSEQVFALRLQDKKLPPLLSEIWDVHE

- activity on PPARα in transactivation assays (hPPARα): negligible activity
- type of agonism on PPARα (hPPARα): partial agonist
- activity on PPARγ in transactivation assays (hPPARγ): negligible activity
- type of agonism on PPARγ (hPPARγ): partial agonist
- activity on LXRβ (LXRβ): did not show any
SMILES: Cc1cc(OC/C=C(/c2ccc(F)cc2)c2ccc(C#CCN3CCOCC3)cc2)ccc1OCC(=O)O [Compound 1, (E)-[4-[3-(4-Fluorophenyl)-3-[4-[3-(morpholin-4-yl)propynyl]phenyl]allyloxy]-2-methyl-phenoxy]acetic acid]
